The nature of series [1]: Chemical stability (hydrolysis, oxidation). The settings on record: acidic and basic hydrolysis (0.5 M HCl and 0.5 M NaOH at 60 °C) and oxidizing conditions (10% H2O2 at room temperature).
A short description of series [2]: Preliminary pharmacokinetics in male Wistar rats, plasma and brain. The class given is in vivo. The settings on record: rat; for MRT: read-out: MRT mean residence time (converted).
The next series concerns the target T1, h5-HT3R (Homo sapiens, UniProt P46098).
T1 construct: expressed in transfected cells; host or cells: CHO
T1 sequence (P46098 24-478): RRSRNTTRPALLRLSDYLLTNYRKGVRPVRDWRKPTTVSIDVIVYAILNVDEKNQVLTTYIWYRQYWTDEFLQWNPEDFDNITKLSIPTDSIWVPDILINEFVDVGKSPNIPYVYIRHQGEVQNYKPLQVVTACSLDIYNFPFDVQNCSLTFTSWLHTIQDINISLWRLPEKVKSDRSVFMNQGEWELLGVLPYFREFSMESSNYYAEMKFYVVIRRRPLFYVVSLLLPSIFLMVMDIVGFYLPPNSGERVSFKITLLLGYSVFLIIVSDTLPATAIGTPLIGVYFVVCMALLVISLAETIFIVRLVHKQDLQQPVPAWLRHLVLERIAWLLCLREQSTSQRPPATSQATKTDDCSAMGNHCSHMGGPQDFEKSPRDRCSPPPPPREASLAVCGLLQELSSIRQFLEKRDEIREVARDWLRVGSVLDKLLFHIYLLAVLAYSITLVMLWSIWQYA
The series is described as follows: 5-HT3R radioligand binding ([3H]-BRL 43694) in CHO cells.

In the next series the target is dopaminergic D3R (Homo sapiens, UniProt P35462). In words: D3R binding ([3H]-methylspiperone), Eurofins. Conditions: read-out: dopamine D3 % inhibition at 1 microM. The text has this:
(§1) The results were expressed as the %
(§2) www.eurofinsdiscovery.com.

In another series the target is 5-HT2BR (Homo sapiens, UniProt P41595). The series is described as follows: 5-HT2BR binding ([3H]-mesulergine), Eurofins.
Chain of 5-HT2BR (P41595 whole entry): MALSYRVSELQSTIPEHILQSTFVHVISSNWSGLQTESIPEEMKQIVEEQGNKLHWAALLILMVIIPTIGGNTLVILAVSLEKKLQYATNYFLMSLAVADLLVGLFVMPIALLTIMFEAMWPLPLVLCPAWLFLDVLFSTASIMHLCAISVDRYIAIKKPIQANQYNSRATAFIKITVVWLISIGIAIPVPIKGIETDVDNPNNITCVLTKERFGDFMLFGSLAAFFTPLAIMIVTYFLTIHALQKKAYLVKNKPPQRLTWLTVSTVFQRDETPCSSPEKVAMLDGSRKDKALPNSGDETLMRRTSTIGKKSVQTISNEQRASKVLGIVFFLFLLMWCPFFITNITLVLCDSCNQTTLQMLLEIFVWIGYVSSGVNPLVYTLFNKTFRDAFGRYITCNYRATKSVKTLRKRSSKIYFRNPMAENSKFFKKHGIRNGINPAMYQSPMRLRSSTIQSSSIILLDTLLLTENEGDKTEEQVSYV
Text: as §1, §2

Another series deals with 5-HT2AR (Homo sapiens, UniProt P28223). The series is described as follows: 5-HT2AR binding ([3H]-ketanserine), Eurofins. Conditions: read-out: serotonin 5-HT2A % inhibition at 1 microM.
Chain of 5-HT2AR (P28223 whole entry): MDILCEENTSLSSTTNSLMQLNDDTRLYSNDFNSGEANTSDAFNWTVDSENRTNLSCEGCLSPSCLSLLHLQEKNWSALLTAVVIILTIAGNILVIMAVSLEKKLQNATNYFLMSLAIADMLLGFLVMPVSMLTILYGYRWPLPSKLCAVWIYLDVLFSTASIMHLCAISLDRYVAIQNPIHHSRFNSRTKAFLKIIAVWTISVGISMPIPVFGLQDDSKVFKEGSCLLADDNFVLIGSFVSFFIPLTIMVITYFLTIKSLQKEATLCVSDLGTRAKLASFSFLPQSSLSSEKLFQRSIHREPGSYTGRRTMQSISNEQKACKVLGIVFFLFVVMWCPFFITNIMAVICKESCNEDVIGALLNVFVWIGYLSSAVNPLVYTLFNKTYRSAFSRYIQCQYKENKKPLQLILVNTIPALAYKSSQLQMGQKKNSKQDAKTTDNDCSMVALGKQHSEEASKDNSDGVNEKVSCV
Text: as §1, §2

A further series addresses T2, 5-HT2CR (Homo sapiens, UniProt P28335).
T2 sequence (P28335 33-458): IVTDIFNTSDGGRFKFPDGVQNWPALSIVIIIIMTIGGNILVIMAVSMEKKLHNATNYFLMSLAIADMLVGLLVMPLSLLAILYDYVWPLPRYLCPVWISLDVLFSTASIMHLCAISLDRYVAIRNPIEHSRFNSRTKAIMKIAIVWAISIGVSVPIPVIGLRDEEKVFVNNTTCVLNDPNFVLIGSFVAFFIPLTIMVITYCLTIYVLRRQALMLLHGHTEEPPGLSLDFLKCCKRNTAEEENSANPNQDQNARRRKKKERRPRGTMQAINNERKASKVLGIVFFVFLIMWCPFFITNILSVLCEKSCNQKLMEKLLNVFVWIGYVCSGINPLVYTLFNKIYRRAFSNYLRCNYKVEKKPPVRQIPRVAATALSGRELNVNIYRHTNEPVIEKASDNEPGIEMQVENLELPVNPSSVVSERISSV
In words: 5-HT2CR binding ([3H]-mesulergine), Eurofins. The settings on record: read-out: serotonin 5-HT2C % inhibition at 1 microM.
Text: as §1, §2

The target of another series is T3, human 5-HT1A (Homo sapiens, UniProt P08908).
T3 construct: expressed in transfected cells
T3 sequence (P08908 1-422): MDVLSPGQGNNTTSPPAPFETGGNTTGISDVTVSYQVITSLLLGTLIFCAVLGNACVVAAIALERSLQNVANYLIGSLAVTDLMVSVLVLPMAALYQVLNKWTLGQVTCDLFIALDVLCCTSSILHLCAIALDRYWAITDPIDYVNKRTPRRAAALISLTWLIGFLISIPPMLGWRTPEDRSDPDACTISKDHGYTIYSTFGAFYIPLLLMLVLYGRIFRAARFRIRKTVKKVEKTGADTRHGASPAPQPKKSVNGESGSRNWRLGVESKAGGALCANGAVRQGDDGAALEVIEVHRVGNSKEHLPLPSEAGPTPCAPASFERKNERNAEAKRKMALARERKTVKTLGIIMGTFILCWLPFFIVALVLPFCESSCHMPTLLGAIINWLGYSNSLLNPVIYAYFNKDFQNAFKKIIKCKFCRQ
In words: 5-HT1AR binding ([3H]-8-OH-DPAT), HEK293. The settings on record: read-out: serotonin 5-HT1A % inhibition at 1 microM. On the procedure:
3. Selectivity screen of PZ-1922
For membrane preparation,
EDTA and 1 mM dithiothreitol.
The composition of the assay buffers was
reader (PerkinElmer, USA).
as §1, §2

The mark [3] stands for this setting: male, Wistar, po, 3 mg/kg intragastric, plasma.
Where [4] appears, read: male, Wistar, 3 mg/kg intravenous, plasma.

Where two headings read alike, the source gives them in different places.

Chain of dopaminergic D3R (P35462 whole entry): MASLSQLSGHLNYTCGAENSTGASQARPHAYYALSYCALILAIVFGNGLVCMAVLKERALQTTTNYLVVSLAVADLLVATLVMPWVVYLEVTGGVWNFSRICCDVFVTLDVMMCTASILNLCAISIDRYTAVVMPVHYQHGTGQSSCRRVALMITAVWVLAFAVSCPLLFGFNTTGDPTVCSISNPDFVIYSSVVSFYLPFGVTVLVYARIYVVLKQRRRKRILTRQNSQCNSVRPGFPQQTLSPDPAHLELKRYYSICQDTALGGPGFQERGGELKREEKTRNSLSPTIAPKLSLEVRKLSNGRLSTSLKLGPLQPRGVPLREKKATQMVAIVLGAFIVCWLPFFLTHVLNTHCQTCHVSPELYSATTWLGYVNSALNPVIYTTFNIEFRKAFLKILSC

Broadly, the MRT is the average time that molecules of a dose stay in the body. In general, AUC(0-t) refers to exposure summed from dosing to a finite time, without extrapolation to infinity. Lower therefore signals low exposure. As a reminder, the Cmax is the peak of the concentration-time curve. The term Tmax denotes the time from dosing to the highest level. As usually defined, the clearance is a measure of how efficiently the substance is removed, as volume per time. In general, Ki refers to a dissociation constant, usually derived from enzyme kinetics or from competition with a known ligand. Low values mean a stronger hold on the target, high ones a looser hold on the target. As a reminder, the inhibition is the percentage by which the read-out fell short of the control. By solubility is commonly meant the concentration that dissolves in the medium under given conditions. Read a low solubility as little dissolved substance. Regarding `Cl.Clc1cccc(Cn2ccc3c(N4CCNCC4)nc4ccccc4c32)c1` [PZ-1922, 1-(3-Chlorobenzyl)-4-(piperazin-1-yl)-1H-pyrrolo[3,2-c]quinoline Hydrochloride], in series [1], the chemical stability result is listed as “chemically stable”. Also, the MRT in series [2] (male, Wistar, po, 3 mg/kg intragastric, brain) is 4.58 h; in series [2] (setting [3]), 3.93 h; in series [2] (male, Wistar, 3 mg/kg intravenous, brain), 2.83 h; in series [2] (setting [4]), 3.48 h. The AUC(0-t) in series [2] (setting [3]) is 224 ng·h/mL; in series [2] (setting [4]), 467 ng·h/mL. Moreover, in [2] (setting [3]), the peak level (Cmax) was 38.6 ng/mL. In series [2] (setting [3]), the Tmax was 2 h. For the same compound, the clearance in [2] (male, Wistar, 3 mg/kg intravenous, plasma, read-out: Cl clearance) came to 39.2 mL/min/kg. Further, the AUC0→t in series [2] (3 mg/kg intragastric, brain) is 42186 ng·min/g; in series [2] (3 mg/kg intravenous, brain) it was 170827 ng·min/g. At h5-HT3R (0.5 nM [3H]-BRL 43694, CHO cells expressing h5-HT3R, two independent experiments), this compound came in with a Ki of 0.45 nM. The inhibition at 1 µM at h5-HT3R (read-out: inhibition of 5-HT3R binding in selectivity screen) was above 50%; at dopaminergic D3R it was 31%; on 5-HT2BR (read-out: serotonin 5-HT2B % inhibition at 1 microM), 17%; at 5-HT2AR it was 5%; on 5-HT2CR, 4%; on human 5-HT1A it was 3%. Moreover, the “effect on 5-HT2BR (cardiac safety, valvulopathy)” value at 5-HT2BR (binding, 1 μM) is listed as “lack of effect”. Also, the solubility in the series “Solubility in water” stood at 325 mg/mL.

Values taken from article PMC10641814 (Journal of Medicinal Chemistry, 2023).
